# Experimental data taken from patent EP0908457B1, “3-(1,2-benzisothiazol- and isoxazol-5-Y1)-2,4(1H,3H)-pyrimidinedione or thione and 3-(1,2-benzisothiazol- and isoxazol-5-y1)-4(3H)-pyrimidinone or thione herbicidal agents” (BASF AKTIENGESELLSCHAFT, priority 1997, dated 1999).
# Key:
# [1] = test system: Echinochloa oryzoides (Ard.) Fritsch.; test: Preemergence weed control under flooded paddy conditions, ECHORC (Watergrass (Calif.)); format: in vivo; details: flooded paddy; for herbicidal effect rating, ECHORC: meaning of each grade not given here
# [2] = test system: Cyperus iria; test: Preemergence weed control under flooded paddy conditions, CYPIR (Rice Flatsedge); format: in vivo; details: flooded paddy; for herbicidal effect rating, CYPIR: meaning of each grade not given here
# [3] = test system: Cyperus serotinus, Rottb.; test: Preemergence weed control under flooded paddy conditions, CYPSE (Flatsedge); format: in vivo; for herbicidal effect rating, CYPSE: meaning of each grade not given here
# [4] = test system: Monochoria vaginalis, Presl.; test: Preemergence weed control under flooded paddy conditions, MOOVA (Monochoria); format: in vivo; details: flooded paddy; for herbicidal effect rating, MOOVA: meaning of each grade not given here
# [5] = test system: Sagittaria pygmaea, L.; test: Preemergence weed control under flooded paddy conditions, SAGPY (Arrowhead (Pygmaea)); format: in vivo; details: flooded paddy; for herbicidal effect rating, SAGPY: meaning of each grade not given here
# [6] = test system: Oryza sativa, (L.) Tebonnet; test: Rice tolerance to post-transplant applications under flooded paddy conditions (Example 187), ORYSAT (Rice, Tebonnet); for herbicidal effect rating ORYSAT: meaning of each grade not given here
# [7] = Rate 0.0320 kg/ha, preemergence, rated three to four weeks after treatment
# [8] = Rate 0.0620 kg/ha, preemergence, rated three to four weeks after treatment
# [9] = Rate 0.1250 kg/ha, preemergence, rated three to four weeks after treatment
# [10] = Rate 0.2500 kg/ha, preemergence, rated three to four weeks after treatment
# [11] = Rate 0.0320 kg/ha, rated three to four weeks after treatment
# [12] = Rate 0.0620 kg/ha, rated three to four weeks after treatment
# [13] = Rate 0.1250 kg/ha, rated three to four weeks after treatment
# [14] = Rate 0.2500 kg/ha, rated three to four weeks after treatment
# [15] = 0.0313 kg/ha, preemergence, rated three to four weeks after treatment
# [16] = 0.0625 kg/ha, preemergence, rated three to four weeks after treatment
# [17] = 0.1250 kg/ha, preemergence, rated three to four weeks after treatment
# [18] = 0.2500 kg/ha, preemergence, rated three to four weeks after treatment
# [19] = Rate 0.0320 kg/ha, preemergence weeds, rated three to four weeks after treatment
# [20] = Rate 0.0620 kg/ha, preemergence weeds, rated three to four weeks after treatment
# [21] = Rate 0.1250 kg/ha, preemergence weeds, rated three to four weeks after treatment
# [22] = Rate 0.2500 kg/ha, preemergence weeds, rated three to four weeks after treatment
# [23] = Rate 0.0320 kg/ha, preemergence, rated 3-4 weeks after treatment
# [24] = Rate 0.0620 kg/ha, preemergence, rated 3-4 weeks after treatment
# [25] = Rate 0.1250 kg/ha, preemergence, rated 3-4 weeks after treatment
# [26] = Rate 0.2500 kg/ha, preemergence, rated 3-4 weeks after treatment
# [27] = Rate 0.5000 kg/ha, preemergence, rated 3-4 weeks after treatment
compound,measurement,setting,value
"CCCCCCCOC(=O)c1nsc2ccc(-n3c(=O)cc(C(F)(F)F)n(C)c3=O)cc12 [Example 388, 1,2-Benzisothiazole-3-carboxylic acid, 5-[3,6-dihydro-3-methyl-2,6-dioxo-4-(trifluoromethyl)-1(2H)-pyrimidinyl]-, heptyl ester]","herbicidal effect rating, ECHORC",[1]; [7],0.0
same,"herbicidal effect rating, ECHORC",[1]; [8],2.0
same,"herbicidal effect rating, ECHORC",[1]; [9],5.0
same,"herbicidal effect rating, ECHORC",[1]; [10],6.0
same,"herbicidal effect rating, CYPIR",[2]; [7],4.0
same,"herbicidal effect rating, CYPIR",[2]; [8],7.0
same,"herbicidal effect rating, CYPIR",[2]; [9],7.0
same,"herbicidal effect rating, CYPIR",[2]; [10],9.0
same,"herbicidal effect rating, CYPSE",[3]; [7],6.0
same,"herbicidal effect rating, CYPSE",[3]; [10],6.0
same,"herbicidal effect rating, MOOVA",[4]; [7],9.0
same,"herbicidal effect rating, MOOVA",[4]; [8],9.0
same,"herbicidal effect rating, MOOVA",[4]; [9],9.0
same,"herbicidal effect rating, MOOVA",[4]; [10],9.0
same,"herbicidal effect rating, SAGPY",[5]; [7],3.0
same,"herbicidal effect rating, SAGPY",[5]; [8],4.0
same,"herbicidal effect rating, SAGPY",[5]; [9],4.0
same,"herbicidal effect rating, SAGPY",[5]; [10],7.0
same,herbicidal effect rating ORYSAT,[6]; [11],3.0
same,herbicidal effect rating ORYSAT,[6]; [12],4.0
same,herbicidal effect rating ORYSAT,[6]; [13],4.0
same,herbicidal effect rating ORYSAT,[6]; [14],6.0
"Cc1ccc(OCC(=O)OCCN(C)C)c(-c2nsc3ccc(-n4c(=O)cc(C(F)(F)F)n(C)c4=O)cc23)c1 [Example 70, 2-(Dimethylamino)ethyl {{2-{5-[3,6-dihydro-3-methyl-2,6-dioxo-4-(trifluoromethyl)-1(2H)-pyrimidinyl]-1,2-benzisothiazol-3-yl}-p-tolyl}oxy}acetate]","herbicidal effect rating, ECHORC",[1]; [15],4.0
same,"herbicidal effect rating, ECHORC",[1]; [16],8.0
same,"herbicidal effect rating, ECHORC",[1]; [17],9.0
same,"herbicidal effect rating, ECHORC",[1]; [18],9.0
same,"herbicidal effect rating, CYPIR",[2]; [15],2.0
same,"herbicidal effect rating, CYPIR",[2]; [16],7.0
same,"herbicidal effect rating, CYPIR",[2]; [17],9.0
same,"herbicidal effect rating, CYPIR",[2]; [18],9.0
same,"herbicidal effect rating, CYPSE",[3]; [15],0.0
same,"herbicidal effect rating, CYPSE",[3]; [16],0.0
same,"herbicidal effect rating, CYPSE",[3]; [17],0.0
same,"herbicidal effect rating, CYPSE",[3]; [18],0.0
same,"herbicidal effect rating, MOOVA",[4]; [15],9.0
same,"herbicidal effect rating, MOOVA",[4]; [16],9.0
same,"herbicidal effect rating, MOOVA",[4]; [17],9.0
same,"herbicidal effect rating, MOOVA",[4]; [18],9.0
same,"herbicidal effect rating, SAGPY",[5]; [15],0.0
same,"herbicidal effect rating, SAGPY",[5]; [16],0.0
same,"herbicidal effect rating, SAGPY",[5]; [17],1.0
same,"herbicidal effect rating, SAGPY",[5]; [18],2.0
same,"herbicidal effect rating, ORYSAT (rice tolerance)","[6]; 0.0313 kg/ha, rated three to four weeks after treatment",3.0
same,"herbicidal effect rating, ORYSAT (rice tolerance)","[6]; 0.0625 kg/ha, rated three to four weeks after treatment",4.5
same,"herbicidal effect rating, ORYSAT (rice tolerance)","[6]; 0.1250 kg/ha, rated three to four weeks after treatment",6.0
same,"herbicidal effect rating, ORYSAT (rice tolerance)","[6]; 0.2500 kg/ha, rated three to four weeks after treatment",6.5
"Cn1c(C(F)(F)F)cc(=O)n(-c2ccc3snc(-c4ccccc4OCC(=O)NS(C)(=O)=O)c3c2)c1=O [Example 268, Acetamide, 2-{o-{5-[3,6-dihydro-3-methyl-2,6-dioxo-4-(trifluoromethyl)-1(2H)-pyrimidinyl]-1,2-benzisothiazol-3-yl}phenoxy}-N-(methylsulfonyl)-]",ECHORC herbicidal effect rating,[1]; [7],1.0
same,ECHORC herbicidal effect rating,[1]; [8],3.0
same,ECHORC herbicidal effect rating,[1]; [9],4.5
same,ECHORC herbicidal effect rating,[1]; [10],4.5
same,CYPIR herbicidal effect rating,[2]; [7],1.0
same,CYPIR herbicidal effect rating,[2]; [8],3.0
same,CYPIR herbicidal effect rating,[2]; [9],6.0
same,CYPIR herbicidal effect rating,[2]; [10],7.5
same,CYPSE herbicidal effect rating,[3]; [7],1.0
same,CYPSE herbicidal effect rating,[3]; [8],5.5
same,CYPSE herbicidal effect rating,[3]; [9],9.0
same,CYPSE herbicidal effect rating,[3]; [10],9.0
same,MOOVA herbicidal effect rating,[4]; [7],7.5
same,MOOVA herbicidal effect rating,[4]; [8],9.0
same,MOOVA herbicidal effect rating,[4]; [9],9.0
same,MOOVA herbicidal effect rating,[4]; [10],9.0
same,SAGPY herbicidal effect rating,[5]; [7],0.0
same,SAGPY herbicidal effect rating,[5]; [8],1.0
same,SAGPY herbicidal effect rating,[5]; [9],1.0
same,SAGPY herbicidal effect rating,[5]; [10],4.0
same,ORYSAT herbicidal effect rating,[6]; [11],3.5
same,ORYSAT herbicidal effect rating,[6]; [12],4.0
same,ORYSAT herbicidal effect rating,[6]; [13],5.0
same,ORYSAT herbicidal effect rating,[6]; [14],7.5
"CONC(=O)COc1ccc(C)cc1-c1nsc2ccc(-n3c(=O)cc(C(F)(F)F)n(C)c3=O)cc12 [Example 316, Acetamide, 2-{{2-{5-[3,6-dihydro-3-methyl-2,6-dioxo-4-(trifluoromethyl)-1(2H)-pyrimidinyl]-1,2-benzisothiazol-3-yl}-p-tolyl}oxy}-N-methoxy-]","herbicidal effect rating, ECHORC",[1]; [19],5.5
same,"herbicidal effect rating, ECHORC",[1]; [20],9.0
same,"herbicidal effect rating, ECHORC",[1]; [21],9.0
same,"herbicidal effect rating, ECHORC",[1]; [22],9.0
same,"herbicidal effect rating, CYPIR",[2]; [19],8.5
same,"herbicidal effect rating, CYPIR",[2]; [20],7.5
same,"herbicidal effect rating, CYPIR",[2]; [21],7.5
same,"herbicidal effect rating, CYPIR",[2]; [22],6.0
same,"herbicidal effect rating, CYPSE",[3]; [19],1.0
same,"herbicidal effect rating, CYPSE",[3]; [20],4.5
same,"herbicidal effect rating, CYPSE",[3]; [21],4.5
same,"herbicidal effect rating, CYPSE",[3]; [22],0.0
same,"herbicidal effect rating, MOOVA",[4]; [19],8.0
same,"herbicidal effect rating, MOOVA",[4]; [20],9.0
same,"herbicidal effect rating, MOOVA",[4]; [21],9.0
same,"herbicidal effect rating, MOOVA",[4]; [22],9.0
same,"herbicidal effect rating, SAGPY",[5]; [19],0.0
same,"herbicidal effect rating, SAGPY",[5]; [20],3.0
same,"herbicidal effect rating, SAGPY",[5]; [21],1.0
same,"herbicidal effect rating, SAGPY",[5]; [22],3.0
same,herbicidal effect rating ORYSAT,[6]; [11],4.5
same,herbicidal effect rating ORYSAT,[6]; [12],4.0
same,herbicidal effect rating ORYSAT,[6]; [13],4.5
same,herbicidal effect rating ORYSAT,[6]; [14],4.0
"Cc1cccc(COCc2nsc3ccc(-n4c(=O)cc(C(F)(F)F)n(C)c4=O)cc23)c1 [Example 587, 2,4(1H,3H)-Pyrimidinedione, 1-methyl-3-{3-{[(m-methylbenzyl)oxy]methyl}-1,2-benzisothiazol-5-yl}-6-(trifluoromethyl)-]","herbicidal effect rating, ECHORC",[1]; [7],7.0
same,"herbicidal effect rating, ECHORC",[1]; [8],7.0
same,"herbicidal effect rating, ECHORC",[1]; [9],9.0
same,"herbicidal effect rating, ECHORC",[1]; [10],9.0
same,"herbicidal effect rating, CYPIR",[2]; [7],4.0
same,"herbicidal effect rating, CYPIR",[2]; [8],8.0
same,"herbicidal effect rating, CYPIR",[2]; [9],9.0
same,"herbicidal effect rating, CYPIR",[2]; [10],9.0
same,"herbicidal effect rating, CYPSE",[3]; [7],0.0
same,"herbicidal effect rating, CYPSE",[3]; [9],0.0
same,"herbicidal effect rating, MOOVA",[4]; [7],5.0
same,"herbicidal effect rating, MOOVA",[4]; [8],5.0
same,"herbicidal effect rating, MOOVA",[4]; [9],9.0
same,"herbicidal effect rating, MOOVA",[4]; [10],9.0
same,"herbicidal effect rating, SAGPY",[5]; [7],0.0
same,"herbicidal effect rating, SAGPY",[5]; [8],2.0
same,"herbicidal effect rating, SAGPY",[5]; [9],5.0
same,"herbicidal effect rating, SAGPY",[5]; [10],5.0
same,herbicidal effect rating ORYSAT,[6]; [11],4.0
same,herbicidal effect rating ORYSAT,[6]; [12],4.0
same,herbicidal effect rating ORYSAT,[6]; [13],4.0
same,herbicidal effect rating ORYSAT,[6]; [14],5.0
"Cc1ccc(OCC(=O)c2ccc(Cl)cc2)c(-c2nsc3ccc(-n4c(=O)cc(C(F)(F)F)n(C)c4=O)cc23)c1 [Example 538, 2,4(1H,3H)-Pyrimidinedione, 3-{3-{6-[(p-chlorophenacyl)oxy]-m-tolyl}-1,2-benzisothiazol-5-yl}-1-methyl-6-(trifluoromethyl)-]","herbicidal effect rating, ECHORC",[1]; [23],2.1
same,"herbicidal effect rating, ECHORC",[1]; [24],3.4
same,"herbicidal effect rating, ECHORC",[1]; [25],4.7
same,"herbicidal effect rating, ECHORC",[1]; [26],9.0
same,"herbicidal effect rating, ECHORC",[1]; [27],9.0
same,"herbicidal effect rating, CYPIR",[2]; [23],0.0
same,"herbicidal effect rating, CYPIR",[2]; [24],0.0
same,"herbicidal effect rating, CYPIR",[2]; [25],0.0
same,"herbicidal effect rating, CYPIR",[2]; [26],0.0
same,"herbicidal effect rating, CYPIR",[2]; [27],9.0
same,"herbicidal effect rating, CYPSE",[3]; [23],0.0
same,"herbicidal effect rating, CYPSE",[3]; [24],0.0
same,"herbicidal effect rating, CYPSE",[3]; [25],0.0
same,"herbicidal effect rating, CYPSE",[3]; [26],0.0
same,"herbicidal effect rating, CYPSE",[3]; [27],0.0
same,"herbicidal effect rating, MOOVA",[4]; [23],9.0
same,"herbicidal effect rating, MOOVA",[4]; [24],9.0
same,"herbicidal effect rating, MOOVA",[4]; [25],9.0
same,"herbicidal effect rating, MOOVA",[4]; [26],9.0
same,"herbicidal effect rating, MOOVA",[4]; [27],9.0
same,"herbicidal effect rating, SAGPY",[5]; [23],0.0
same,"herbicidal effect rating, SAGPY",[5]; [24],0.0
same,"herbicidal effect rating, SAGPY",[5]; [25],0.0
same,"herbicidal effect rating, SAGPY",[5]; [26],0.0
same,"herbicidal effect rating, SAGPY",[5]; [27],0.0
same,herbicidal effect rating ORYSAT,"[6]; Rate 0.0320 kg/ha, rated 3-4 weeks after treatment",0.0
same,herbicidal effect rating ORYSAT,"[6]; Rate 0.0620 kg/ha, rated 3-4 weeks after treatment",0.0
same,herbicidal effect rating ORYSAT,"[6]; Rate 0.1250 kg/ha, rated 3-4 weeks after treatment",1.0
same,herbicidal effect rating ORYSAT,"[6]; Rate 0.2500 kg/ha, rated 3-4 weeks after treatment",1.0
same,herbicidal effect rating ORYSAT,"[6]; Rate 0.5000 kg/ha, rated 3-4 weeks after treatment",1.0
